Values quoted from earlier work as cited in patent US20070066580A1, “Novel aldosterone antagonists and uses thereof” (Recordati Ireland Limited, priority 2005, published 2007).

What was measured:
[1] = biological target: T1, MR (Homo sapiens, UniProt P08235); conditions: cited from earlier work
T1 sequence (P08235 1-984): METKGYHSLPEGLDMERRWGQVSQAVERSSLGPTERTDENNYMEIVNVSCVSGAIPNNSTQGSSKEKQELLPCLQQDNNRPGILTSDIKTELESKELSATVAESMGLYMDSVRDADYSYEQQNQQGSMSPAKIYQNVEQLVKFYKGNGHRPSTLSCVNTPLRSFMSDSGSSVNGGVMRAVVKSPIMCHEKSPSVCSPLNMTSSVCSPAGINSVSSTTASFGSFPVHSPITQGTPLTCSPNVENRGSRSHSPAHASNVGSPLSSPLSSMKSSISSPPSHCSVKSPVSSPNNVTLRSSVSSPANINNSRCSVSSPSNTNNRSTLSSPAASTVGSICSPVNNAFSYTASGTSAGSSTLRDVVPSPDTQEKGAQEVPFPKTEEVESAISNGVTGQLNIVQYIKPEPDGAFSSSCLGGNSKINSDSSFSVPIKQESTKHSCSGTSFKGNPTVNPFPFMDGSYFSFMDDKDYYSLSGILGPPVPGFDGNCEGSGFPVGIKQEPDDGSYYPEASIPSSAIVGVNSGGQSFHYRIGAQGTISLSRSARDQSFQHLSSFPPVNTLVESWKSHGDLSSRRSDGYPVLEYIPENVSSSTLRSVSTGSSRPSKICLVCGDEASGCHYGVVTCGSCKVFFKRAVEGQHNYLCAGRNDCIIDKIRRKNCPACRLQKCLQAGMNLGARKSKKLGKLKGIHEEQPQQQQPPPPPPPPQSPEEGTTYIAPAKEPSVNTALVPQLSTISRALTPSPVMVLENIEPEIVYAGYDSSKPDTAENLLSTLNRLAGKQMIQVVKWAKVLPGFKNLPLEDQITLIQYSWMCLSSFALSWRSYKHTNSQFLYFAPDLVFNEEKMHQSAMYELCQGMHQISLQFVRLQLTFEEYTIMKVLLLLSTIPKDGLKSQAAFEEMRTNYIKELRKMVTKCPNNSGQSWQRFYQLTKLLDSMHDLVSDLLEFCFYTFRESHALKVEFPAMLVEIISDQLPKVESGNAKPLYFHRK

[2] = severe heart failure (NYHA class IV), plus diuretics, versus placebo plus diuretics; cited from earlier work
[3] = cited from earlier work

## CC(=O)S[C@@H]1CC2=CC(=O)C=C[C@]2(C)[C@H]2CC[C@@]3(C)[C@@H]([C@@H]4C[C@@H]4[C@@]34CCC(=O)O4)[C@H]12 [Mespirenone]
[1]
  anti-MR effectiveness compared with spironolactone: about three times higher

## CCOC(=O)[C@H](CCc1ccccc1)N[C@@H](C)C(=O)N1CCC[C@H]1C(=O)O [enalapril]
[2]
  reduction of mortality at one year: 31%

## COC(=O)[C@@H]1CC2=CC(=O)CC[C@]2(C)[C@@]23O[C@@H]2C[C@@]2(C)[C@@H](CC[C@@]24CCC(=O)O4)[C@H]13 [eplerenone]
[3]
  potency in vivo as % of spironolactone: 50-75%

## C[C@]12C=CC(=O)C=C1[C@@H]1C[C@@H]1[C@H]1[C@@H]3[C@@H]4C[C@@H]4[C@@]4(CCC(=O)O4)[C@@]3(C)CC[C@@H]12 [spirorenone]
[1]
  antimineralocorticoid potency, times more potent than spironolactone: approximately 7.5 times
